| Structure (SMILES) | melting point [°C] |
| --- | --- |
| BrCCBr [1,2-dibromoethane] | 10 |
| CC(Cl)CCl (centres undefined) [1,2-dichloropropane] | -100 |
| ICCI [1,2-diiodoethane] [listing 1 of 2 here] | 82 |
| ICCI [1,2-diiodoethane] [listing 2 of 2 here] | 81 |
| C1=CC=C/C=CC=C1 [1,3,5,7-cyclooctatetraene] | -5 |
| Clc1cc(Cl)cc(Cl)c1 [1,3,5-Trichlorobenzene] | 64 |
| Clc1cc(Cl)c(I)c(Cl)c1 [1,3,5-trichloro-2-iodobenzene] | 55 |
| Clc1cc(Cl)cc(Cl)c1 [1,3,5-trichlorobenzene] | 64 |
| O=[N+]([O-])c1c(F)cc(F)cc1F [1,3,5-trifluoro-2-nitrobenzene] | 4 |
| CC(C)c1cc(C(C)C)cc(C(C)C)c1 [1,3,5-triisopropylbenzene] | -7 |
| COc1cc(OC)cc(OC)c1 [1,3,5-trimethoxybenzene] | 53 |
| O=C(Nc1ccccc1)Nc1ccccc1 [1,3-DIPHENYLUREA] | 232 |
| C1COCOC1 [1,3-Dioxane] | -42 |
| C(=C\c1cccc(/C=C/c2ccccc2)c1)/c1ccccc1 [1,3-bis[(E)-2-phenylethenyl]benzene] | 150 |
| BrCCCBr [1,3-dibromopropane] | -34 |
| Cl/C=C/CCl [1,3-dichloropropene, cis trans] | -84 |
| CN1CCCN(C)C1=O [1,3-dimethyl-3,4,5,6-tetrahydro-2(1h)-pyrimidinone] | -23 |
| C1COCO1 [1,3-dioxolane] | -95 |
| O=C1C=CC(=O)C=C1 [1,4-Benzoquinone] | 114 |
| Brc1ccc(Br)cc1 [1,4-Dibromobenzene] | 88 |
| O=C1C=CC(=O)c2ccccc21 [1,4-Naphthoquinone] | 126 |
| NC(=S)C1COc2ccccc2O1 (centres undefined) [1,4-benzodioxane-2-thiocarboxamide] | 174 |
| Cc1ccc(S(=O)(=O)OC[C@@H]2OC(C)(C)O[C@H]2COS(=O)(=O)c2ccc(C)cc2)cc1 [1,4-di-o-tosyl-2,3-o-isopropylidene-l-threitol] | 90 |
| O=[N+]([O-])c1cc(Br)ccc1Br [1,4-dibromo-2-nitrobenzene] | 84 |

| Structure (SMILES) | melting point [°C] |
| --- | --- |
| Brc1ccc(Br)cc1 [1,4-dibromobenzene] | 88 |
| BrCCCCBr [1,4-dibromobutane] | -20 |
| Clc1ccc(Cl)c(I)c1 [1,4-dichloro-2-iodobenzene] | 21 |
| Clc1ccc(Cl)cc1 [1,4-dichlorobenzene] | 54 |
| Ic1ccc(I)cc1 [1,4-diiodobenzene] | 131 |
| ICCCCI [1,4-diiodobutane] | 6 |
| Nc1ccc(N)cc1 [1,4-phenylenediamine] | 142 |
| Cc1cc(=O)n(-c2ccccc2)n1C [1,5-Dimethyl-2-phenyl-1,2-dihydro-3H-pyrazol-3-one] | 110 |
| Nc1cccc2c(N)cccc12 [1,5-Naphthalenediamine] | 158 |
| C1=CCCC=CCC1 [1,5-cyclooctadiene] | -69 |
| C1CCc2nnnn2CC1 [1,5-pentamethylene-1h-tetrazole] | 60 |
| N#CCCCCCCC#N [1,6-dicyanohexane] | -3 |
| COc1ccc2c(OC)cccc2c1 [1,6-dimethoxynaphthalene] | 59 |
| O=[N+]([O-])c1ccc2c(c1)-c1cccc([N+](=O)[O-])c1C2 [1,6-dinitro-9H-fluorene] | 286 |
| O=C1c2c(O)ccc([N+](=O)[O-])c2C(=O)c2c([N+](=O)[O-])ccc(O)c21 [1,8-Dihydroxy-4,5-dinitro-9,10-anthraquinone] | 225 |
| COc1ccc(C(=O)Cc2ccccc2)cc1OC [1-(3,4-Dimethoxyphenyl)-2-phenylethanone] | 73 |
| Nc1cccc(-n2ccccc2=O)c1 [1-(3-Aminophenyl)pyridin-2(1H)-one] | 183 |
| Fc1ccc(N2CCNCC2)cc1 [1-(4-fluorophenyl)piperazine] | 32 |
| c1cc(N2CCNCC2)ccn1 [1-(4-pyridyl)piperazine] | 139 |
| NCc1cccc2c(Br)cccc12 [1-(5-bromonaphthalen-1-yl)methanamine] | 139 |
| CS(=O)(=O)n1ccnc1 [1-(methylsulfonyl)imidazole] | 89 |
| O=[N+]([O-])c1cccc(Cl)c1 [1-Chloro-3-nitrobenzene] | 45 |
| Clc1cccc2ccccc12 [1-Chloronaphthalene] | -21.5 |

The remaining lines, values ahead:

| melting point [°C] | Structure (SMILES) |
| --- | --- |
| 44 | CCOc1ccccc1OCC [1,2-diethoxybenzene] |
| -31 | CCc1ccccc1CC [1,2-diethylbenzene] |
| 138 | O=c1n(CCO)c(=O)n(CCO)c(=O)n1CCO [1,3,5-tris(2-hydroxyethyl)cyanuric acid] |
| 58 | OCc1cccc(CO)c1 [1,3-benzenedimethanol] [listing 1 of 2 here] |
| 58 | OCc1cccc(CO)c1 [1,3-benzenedimethanol] [listing 2 of 2 here] |
| 61 | c1ccc(P(CCCP(c2ccccc2)c2ccccc2)c2ccccc2)cc1 [1,3-bis(diphenylphosphino)propane] |
| 36 | CC(=O)c1cccc(C(C)=O)c1 [1,3-diacetylbenzene] |
| 125 | Oc1cc(O)c2ccccc2c1 [1,3-dihydroxynaphthalene] |
| 82 | OC(COc1ccccc1)COc1ccccc1 [1,3-diphenoxy-2-propanol] |
| 33 | O=C(Cc1ccccc1)Cc1ccccc1 [1,3-diphenylacetone] [listing 1 of 2 here] |
| 34 | O=C(Cc1ccccc1)Cc1ccccc1 [1,3-diphenylacetone] [listing 2 of 2 here] |
| -21 | c1ccc(CCCc2ccccc2)cc1 [1,3-diphenylpropane] |
| 91 | Cc1ccc(S(=O)(=O)OCCCOS(=O)(=O)c2ccc(C)cc2)cc1 [1,3-propanediol di-p-toluenesulfonate] |
| -79 | SCCCS [1,3-propanedithiol] |
| 119 | OCc1ccc(CO)cc1 [1,4-benzenedimethanol] |
| -43 | CCc1ccc(CC)cc1 [1,4-diethylbenzene] |
| 61 | OC1COC2C(O)COC12 (centres undefined) [1,4:3,6-dianhydrohexitol] |
| 164 | CC(C)CCCC(C)C1CCC2C3CCC45CCC(=O)C4C5(C)C3CCC12C (centres undefined) [1,5-cyclocholestan-2-one] |
| -141 | C=CCCC=C [1,5-hexadiene] |
| 41 | NCCCCCCN [1,6-diaminohexane] |
| 45 | OCCCCCCO [1,6-hexanediol] |
| 181 | O=C1c2c(O)cccc2Cc2cccc(O)c21 [1,8-Dihydroxyanthracen-9(10H)-one] |
| 47 | OCCCCCCCCCO [1,9-nonanediol] |
| 83 | OCCCCCCCCCCCCO [1,12-dodecanediol] |
| 127 | O=C(O)CCCCCCCCCCCCCCCCCCC(=O)O [1,18-octadecanedicarboxylic acid] |
| 100 | CCC(C(=O)NC(=O)NC(C)=O)c1ccccc1 (centres undefined) [1-Acetyl-3-(2-phenylbutyryl)urea] |
| -2 | CC(O)CN (centres undefined) [1-Aminopropan-2-ol] |

Source: the Bradley open melting point set (2014)
